Source: PubChem BioAssay AID1919002 (Molecular Pharmacology Branch, DTP, NCI, 2023)

Test system: 743489-274-T-PDC complex spheroid growth
Assay: Anticancer human tumor 743489-274-T-PDC patient-derived renal cell carcinoma cell line growth inhibition [AhR]
Conditions: for IC50: curve of first compound; for viability, T/C: stronger effect = lower value
Excerpt: Multicellular complex tumor spheroid response to aryl hydrocarbon receptor antagonists in combination with a variety of drugs and investigational agents in selected tumor cell lines
The current study was undertaken to assess response to aryl hydrocarbon receptor antagonists in combination with standard-of-care drugs and investigational agents in solid tumor complex spheroid models. Complex spheroids include a stromal component modeled by human endothelial cells (HUVEC) and fibroblasts modeled by human mesenchymal stem cells (MSCs). The concentration ranges selected for each drug and investigational agent were based upon clinically achievable concentrations if the clinical Cmax of the agent was known.
Compounds. The drugs and investigational agents: BAY 2416964 (NSC825713), GNF351 (NSC835774), CH-223191 (NSC835775), CPI-455 (NSC825282), aza-TdCyd (NSC777586), decitabine (NSC127716), belinostat (NSC758774), entinostat (NSC756642), pevonedistat (NSC761192), tazemetostat (NSC777109), talazoparib (NSC765396), olaparib (NSC753686), selinexor (NSC780203), nedisertib (M3814, NSC802822), bortezomib (NSC756655), venetoclax (NSC766270), doxorubicin (NSC123127), elimusertib (BAY189344, NSC800525), ceralasertib (AZD6738, NSC777638), TAK-243 (NSC785004), alisertib (NSC759677), etoposide (NSC141540), topotecan (NSC609699), eribulin (NSC707389), gemcitabine (NSC613327), carboplatin (NSC241240), cisplatin (NSC119875), and SN-38 (NSC673596) were obtained from the National Cancer Institute (NCI) Developmental Therapeutics Program Chemical Repository (32). The FDA-approved anticancer drug set is available from the Developmental Therapeutics Program at https://dtp.cancer.gov/organization/dscb/obtaining/available plates.htm. […] The stock solutions were prepared in dimethyl sulfoxide (DMSO, Sigma-Aldrich, St. Louis, MO, cat. D2650), except for the platinum compounds which were prepared in saline (Quality Biological, Gaithersburg, MD, cat. 114-055-101), at 800-fold the tested concentration and stored at -70 degrees C prior to their use. All drugs and investigational agents were tested over a range starting from a high concentration at or near the clinical Cmax and decreasing in half-log increments. If the clinical Cmax for an agent had not been determined, the highest concentration tested was 10 microM (Table 1).
Cell Culture. All cells were maintained in an incubator at 37 degrees C and 5% CO2 with 95% humidity. The PDC lines were cultured according to standard operating procedures established by the NCI PDMR (https://pdmr.cancer.gov). Briefly, all PDCs were thawed and cultured in Matrigel-coated flasks prepared with a working solution of 1X Ham's F-12 nutrient mix, without supplementation (Invitrogen, Waltham, MA, cat. 11765054), 100 U/mL penicillin-streptomycin (Invitrogen, cat. 15140122), and 2.5% Matrigel (Corning Inc., Corning, NY, cat. 354248) for the first three passages. All PDCs were cultured in complete DMEM/F-12 media containing advanced DMEM/F-12 (Invitrogen, cat. 12634028), 4.9% defined fetal bovine serum, heat inactivated (HyClone Laboratories Inc., Logan, UT, cat. SH30070.03HI), 389 ng/mL hydrocortisone (Sigma-Aldrich, cat. H4001), 9.7 ng/mL human EGF recombinant protein (Invitrogen, cat. PHG0313), 23.4 microg/mL adenine (Sigma-Aldrich, cat. A2786), 97.3 U/mL penicillin-streptomycin (Invitrogen, cat. 15140122), 1.9 mM L-glutamine (Invitrogen, cat. 25030081), and 9.7 microM Y-27632 dihydrochloride (Tocris Bioscience, Bristol, United Kingdom, cat. 1254). The PDCs were cultured in complete DMEM/F12 media without 10 microM Y-27632 dihydrochloride for at least two passages prior to the screen. The established cell lines NCI-H1341 and […] were cultured in DMEM/F-12, HEPES (Invitrogen, cat. 11330032), 5% defined fetal bovine serum (HyClone Laboratories Inc., cat. SH30070.03), ITS premix universal culture supplement [insulin (5 microg/mL), transferrin (5 microg/mL), and selenious acid (5 ng/mL)] […]

[1] = second compound 0.1 µM, first compound 0.00949 µM
[2] = second compound 0.1 µM, first compound 0.03 µM
[3] = second compound 0.1 µM, first compound 0.0949 µM
[4] = second compound 0.1 µM, first compound 0.3 µM
[5] = second compound 0.316 µM, first compound 0.00949 µM
[6] = second compound 0.316 µM, first compound 0.03 µM
[7] = second compound 0.316 µM, first compound 0.0949 µM
[8] = second compound 0.316 µM, first compound 0.3 µM
[9] = second compound 1 µM, first compound 0.00949 µM
[10] = second compound 1 µM, first compound 0.03 µM
[11] = second compound 1 µM, first compound 0.0949 µM
[12] = second compound 1 µM, first compound 0.3 µM
[13] = second compound 3.16 µM, first compound 0.00949 µM
[14] = second compound 3.16 µM, first compound 0.03 µM
[15] = second compound 3.16 µM, first compound 0.0949 µM
[16] = second compound 3.16 µM, first compound 0.3 µM
[17] = second compound 10 µM, first compound 0.00949 µM
[18] = second compound 10 µM, first compound 0.03 µM
[19] = second compound 10 µM, first compound 0.0949 µM
[20] = second compound 10 µM, first compound 0.3 µM
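Note: spheroids exposed to agents for 7 days before readout.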
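Throughout, for viability, T/C: 100% = DMSO vehicle control wells.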

CCc1c2c(nc3ccc(O)cc13)-c1cc3c(c(=O)n1C2)COC(=O)[C@]3(O)CC + CC(CO)NC(=O)c1cc(-c2ccc(Cl)cc2)nn(-c2cnn(C)c2)c1=O was tested, and the IC50 (second compound 0.1 µM) was greater than 0.3 µM, the IC50 (second compound 0.316 µM) was greater than 0.3 µM and the IC50 (second compound 1 µM) was greater than 0.3 µM. The IC50 (second compound 3.16 µM) was greater than 0.3 µM, the IC50 (second compound 10 µM) was greater than 0.3 µM and the viability, T/C (second compound 0.1 µM, first compound 0.000949 µM) was 107%. It also gave a viability, T/C (second compound 0.1 µM, first compound 0.003 µM) of 105%, a viability, T/C [1] of 87% and a viability, T/C [2] of 88.1%. For the same compound, the viability, T/C [3] was 70.5%, the viability, T/C [4] was 64.5% and the viability, T/C (second compound 0.316 µM, first compound 0.000949 µM) was 87.7%. The viability, T/C (second compound 0.316 µM, first compound 0.003 µM) was 94%, the viability, T/C [5] was 103% and the viability, T/C [6] was 78.7%. For the same compound, the viability, T/C [7] was 71.5%, the viability, T/C [8] was 55.8% and the viability, T/C (second compound 1 µM, first compound 0.000949 µM) was 98.4%. The viability, T/C (second compound 1 µM, first compound 0.003 µM) was 88.7%, the viability, T/C [9] was 91.6% and the viability, T/C [10] was 88.7%. For the same compound, the viability, T/C [11] was 73.1%, the viability, T/C [12] was 68.4% and the viability, T/C (second compound 3.16 µM, first compound 0.000949 µM) was 94.2%. It also gave a viability, T/C (second compound 3.16 µM, first compound 0.003 µM) of 100%, a viability, T/C [13] of 97.9% and a viability, T/C [14] of 84.3%. It also gave a viability, T/C [15] of 76.8%, a viability, T/C [16] of 59.3% and a viability, T/C (second compound 10 µM, first compound 0.000949 µM) of 87.7%. It also gave a viability, T/C (second compound 10 µM, first compound 0.003 µM) of 93.1%, a viability, T/C [17] of 82.7% and a viability, T/C [18] of 97.7%. It also gave a viability, T/C [19] of 79.7% and a viability, T/C [20] of 65.2%.

Work on O=C(c1cc(Cc2n[nH]c(=O)c3ccccc23)ccc1F)N1CCN(C(=O)C2CC2)CC1 + Cc1cncc(-c2nc(NCCc3c[nH]c4ccccc34)c3ncn(C(C)C)c3n2)c1 yielded an IC50 (second compound 0.1 µM) greater than 10 µM, an IC50 (second compound 0.316 µM) greater than 10 µM and an IC50 (second compound 1 µM) greater than 10 µM. It also gave an IC50 (second compound 3.16 µM) greater than 10 µM, an IC50 (second compound 10 µM) greater than 10 µM and a viability, T/C (second compound 0.1 µM, first compound 0.0316 µM) of 91.6%. The viability, T/C (second compound 0.1 µM, first compound 0.1 µM) was 96.4%, the viability, T/C (second compound 0.1 µM, first compound 0.316 µM) was 99% and the viability, T/C (second compound 0.1 µM, first compound 1 µM) was 88.3%. For the same compound, the viability, T/C (second compound 0.1 µM, first compound 3.16 µM) was 86.1%, the viability, T/C (second compound 0.1 µM, first compound 10 µM) was 85.6% and the viability, T/C (second compound 0.316 µM, first compound 0.0316 µM) was 87.1%. The viability, T/C (second compound 0.316 µM, first compound 0.1 µM) was 84.4%, the viability, T/C (second compound 0.316 µM, first compound 0.316 µM) was 94.2% and the viability, T/C (second compound 0.316 µM, first compound 1 µM) was 86.2%. For the same compound, the viability, T/C (second compound 0.316 µM, first compound 3.16 µM) was 82.1%, the viability, T/C (second compound 0.316 µM, first compound 10 µM) was 88.4% and the viability, T/C (second compound 1 µM, first compound 0.0316 µM) was 98.8%. For the same compound, the viability, T/C (second compound 1 µM, first compound 0.1 µM) was 99.9%, the viability, T/C (second compound 1 µM, first compound 0.316 µM) was 94.5% and the viability, T/C (second compound 1 µM, first compound 1 µM) was 93.2%. The viability, T/C (second compound 1 µM, first compound 3.16 µM) was 89.9%, the viability, T/C (second compound 1 µM, first compound 10 µM) was 85.4% and the viability, T/C (second compound 3.16 µM, first compound 0.0316 µM) was 93.3%. For the same compound, the viability, T/C (second compound 3.16 µM, first compound 0.1 µM) was 102%, the viability, T/C (second compound 3.16 µM, first compound 0.316 µM) was 100% and the viability, T/C (second compound 3.16 µM, first compound 1 µM) was 90%. It also gave a viability, T/C (second compound 3.16 µM, first compound 3.16 µM) of 85.7%, a viability, T/C (second compound 3.16 µM, first compound 10 µM) of 95.1% and a viability, T/C (second compound 10 µM, first compound 0.0316 µM) of 104%. For the same compound, the viability, T/C (second compound 10 µM, first compound 0.1 µM) was 102%, the viability, T/C (second compound 10 µM, first compound 0.316 µM) was 111% and the viability, T/C (second compound 10 µM, first compound 1 µM) was 102%. The viability, T/C (second compound 10 µM, first compound 3.16 µM) was 105% and the viability, T/C (second compound 10 µM, first compound 10 µM) was 103%.

O=C(C=Cn1cnc(-c2cc(C(F)(F)F)cc(C(F)(F)F)c2)n1)NNc1cnccn1 + Cc1ccccc1N=Nc1ccc(NC(=O)c2ccnn2C)c(C)c1 gave an IC50 (second compound 0.1 µM) greater than 3 µM, an IC50 (second compound 0.316 µM) greater than 3 µM and an IC50 (second compound 1 µM) greater than 3 µM. The IC50 (second compound 3.16 µM) was greater than 3 µM, the IC50 (second compound 10 µM) was greater than 3 µM and the viability, T/C [1] was 106%. It also gave a viability, T/C [2] of 110%, a viability, T/C [3] of 118% and a viability, T/C [4] of 140%. It also gave a viability, T/C (second compound 0.1 µM, first compound 0.949 µM) of 121%, a viability, T/C (second compound 0.1 µM, first compound 3 µM) of 104% and a viability, T/C [5] of 105%. It also gave a viability, T/C [6] of 102%, a viability, T/C [7] of 115% and a viability, T/C [8] of 133%. It also gave a viability, T/C (second compound 0.316 µM, first compound 0.949 µM) of 103%, a viability, T/C (second compound 0.316 µM, first compound 3 µM) of 94% and a viability, T/C [9] of 97.8%. The viability, T/C [10] was 107%, the viability, T/C [11] was 128% and the viability, T/C [12] was 140%. It also gave a viability, T/C (second compound 1 µM, first compound 0.949 µM) of 110%, a viability, T/C (second compound 1 µM, first compound 3 µM) of 97.1% and a viability, T/C [13] of 102%. The viability, T/C [14] was 97.7%, the viability, T/C [15] was 109% and the viability, T/C [16] was 127%. It also gave a viability, T/C (second compound 3.16 µM, first compound 0.949 µM) of 95.4%, a viability, T/C (second compound 3.16 µM, first compound 3 µM) of 82.5% and a viability, T/C [17] of 90.8%. It also gave a viability, T/C [18] of 85.8%, a viability, T/C [19] of 99.7% and a viability, T/C [20] of 128%. It also gave a viability, T/C (second compound 10 µM, first compound 0.949 µM) of 101% and a viability, T/C (second compound 10 µM, first compound 3 µM) of 79.2%.
